Source: patent publication US8354372B2 (priority 2006, dated 2013)

Key:
[1] = system: bovine adrenal chromaffin cells; assay type: cell-based
[2] = system: CCI-rats; conditions: rat, in vivo, po
[3] = biological target: endoproteinase Glu-C (Endo Glu-C) (Staphylococcus aureus, UniProt P0C1U8); conditions: isolated enzyme glu c, pH 8
[4] = human, plasma
[5] = biological target: nAChR combination α3α5β4 expressed in Xenopus oocytes; experiment: cell-based or functional assay
[6] = biological target: α4β2 nAChR (Homo sapiens, UniProt P17787+P43681); assay type: cell-based
α4β2 nAChR, sequence (P43681 29-627 limits assumed): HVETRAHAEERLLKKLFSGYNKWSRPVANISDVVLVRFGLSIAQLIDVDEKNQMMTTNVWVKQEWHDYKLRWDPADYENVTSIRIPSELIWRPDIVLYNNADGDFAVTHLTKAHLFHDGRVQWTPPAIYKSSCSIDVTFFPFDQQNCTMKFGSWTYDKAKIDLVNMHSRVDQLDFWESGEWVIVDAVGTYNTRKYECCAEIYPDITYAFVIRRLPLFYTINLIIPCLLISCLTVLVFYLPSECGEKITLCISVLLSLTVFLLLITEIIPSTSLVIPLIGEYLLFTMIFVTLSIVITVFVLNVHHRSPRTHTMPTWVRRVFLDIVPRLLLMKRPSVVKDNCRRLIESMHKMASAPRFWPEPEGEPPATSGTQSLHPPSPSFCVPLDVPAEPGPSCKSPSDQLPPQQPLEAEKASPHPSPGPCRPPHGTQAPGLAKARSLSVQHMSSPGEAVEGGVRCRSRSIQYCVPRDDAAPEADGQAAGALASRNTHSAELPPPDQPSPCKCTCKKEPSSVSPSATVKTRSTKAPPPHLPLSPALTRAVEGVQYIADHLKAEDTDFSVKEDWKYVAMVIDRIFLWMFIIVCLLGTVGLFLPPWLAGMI
α4β2 nAChR, sequence (P17787 26-502 limits assumed): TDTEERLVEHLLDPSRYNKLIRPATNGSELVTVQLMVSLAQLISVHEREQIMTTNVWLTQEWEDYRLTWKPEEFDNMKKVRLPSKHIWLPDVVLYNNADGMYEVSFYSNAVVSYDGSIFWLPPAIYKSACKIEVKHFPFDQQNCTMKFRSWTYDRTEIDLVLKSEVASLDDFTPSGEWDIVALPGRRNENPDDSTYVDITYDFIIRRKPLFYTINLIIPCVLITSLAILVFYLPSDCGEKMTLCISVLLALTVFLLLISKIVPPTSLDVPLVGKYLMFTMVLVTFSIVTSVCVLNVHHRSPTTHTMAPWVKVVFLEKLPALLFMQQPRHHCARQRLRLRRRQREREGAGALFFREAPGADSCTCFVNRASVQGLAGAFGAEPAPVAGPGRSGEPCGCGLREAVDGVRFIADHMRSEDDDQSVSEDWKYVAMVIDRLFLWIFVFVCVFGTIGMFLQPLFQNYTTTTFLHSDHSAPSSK

[7] = biological target: α4β4 nAChR (Homo sapiens, UniProt P30926+P43681); assay type: cell-based
α4β4 nAChR, sequence (P43681 29-627 limits assumed): as the sequence (P43681 29-627 limits assumed) above
α4β4 nAChR, sequence (P30926 22-498 limits assumed): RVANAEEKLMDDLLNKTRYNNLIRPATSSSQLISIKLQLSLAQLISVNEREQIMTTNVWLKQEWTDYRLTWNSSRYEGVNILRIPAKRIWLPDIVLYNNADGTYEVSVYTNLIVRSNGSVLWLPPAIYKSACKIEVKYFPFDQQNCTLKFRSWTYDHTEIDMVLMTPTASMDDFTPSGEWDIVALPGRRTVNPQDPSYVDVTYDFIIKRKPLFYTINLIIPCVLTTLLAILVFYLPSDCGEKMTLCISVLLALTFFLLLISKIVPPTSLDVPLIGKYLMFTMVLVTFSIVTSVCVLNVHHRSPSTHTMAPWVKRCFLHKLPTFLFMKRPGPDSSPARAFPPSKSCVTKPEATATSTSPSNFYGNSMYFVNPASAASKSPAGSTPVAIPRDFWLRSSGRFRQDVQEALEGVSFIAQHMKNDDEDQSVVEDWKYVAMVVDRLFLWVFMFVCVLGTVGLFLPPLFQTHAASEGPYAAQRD

[8] = biological target: homopentameric neuronal nAChR, α7 (Homo sapiens, UniProt P36544); assay type: cell-based; conditions: 10 µM
homopentameric neuronal nAChR, α7, sequence (P36544 23-502 limits assumed): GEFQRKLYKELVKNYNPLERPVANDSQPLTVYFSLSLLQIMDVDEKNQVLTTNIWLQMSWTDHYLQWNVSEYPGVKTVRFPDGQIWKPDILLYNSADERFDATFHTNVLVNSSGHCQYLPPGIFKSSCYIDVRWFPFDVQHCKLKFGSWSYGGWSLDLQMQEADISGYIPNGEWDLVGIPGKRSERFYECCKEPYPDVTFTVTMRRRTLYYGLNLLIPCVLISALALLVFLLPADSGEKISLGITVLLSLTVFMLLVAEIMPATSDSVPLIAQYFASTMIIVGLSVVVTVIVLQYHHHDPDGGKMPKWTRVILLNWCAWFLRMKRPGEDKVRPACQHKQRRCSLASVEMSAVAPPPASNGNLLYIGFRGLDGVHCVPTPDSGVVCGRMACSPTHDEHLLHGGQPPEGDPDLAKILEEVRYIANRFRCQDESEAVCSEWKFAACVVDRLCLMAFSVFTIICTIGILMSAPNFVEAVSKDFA

[9] = biological target: α3α5β4 nAChR (Homo sapiens, UniProt P30926+P32297); assay type: cell-based
α3α5β4 nAChR, sequence (P30926 whole entry, looked up): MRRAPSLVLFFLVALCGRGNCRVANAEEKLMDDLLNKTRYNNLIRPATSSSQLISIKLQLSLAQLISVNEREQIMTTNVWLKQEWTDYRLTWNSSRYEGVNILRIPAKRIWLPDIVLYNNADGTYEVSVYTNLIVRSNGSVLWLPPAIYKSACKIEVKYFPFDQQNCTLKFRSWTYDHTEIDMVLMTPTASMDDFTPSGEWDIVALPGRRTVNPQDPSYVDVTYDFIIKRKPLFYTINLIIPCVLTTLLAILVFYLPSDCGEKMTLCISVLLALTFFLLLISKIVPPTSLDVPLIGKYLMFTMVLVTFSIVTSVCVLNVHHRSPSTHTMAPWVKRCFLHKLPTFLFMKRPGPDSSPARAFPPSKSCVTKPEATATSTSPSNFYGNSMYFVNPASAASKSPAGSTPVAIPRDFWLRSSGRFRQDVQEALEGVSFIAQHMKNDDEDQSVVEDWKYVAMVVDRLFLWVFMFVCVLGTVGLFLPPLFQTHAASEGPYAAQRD
α3α5β4 nAChR, sequence (P32297 whole entry, looked up): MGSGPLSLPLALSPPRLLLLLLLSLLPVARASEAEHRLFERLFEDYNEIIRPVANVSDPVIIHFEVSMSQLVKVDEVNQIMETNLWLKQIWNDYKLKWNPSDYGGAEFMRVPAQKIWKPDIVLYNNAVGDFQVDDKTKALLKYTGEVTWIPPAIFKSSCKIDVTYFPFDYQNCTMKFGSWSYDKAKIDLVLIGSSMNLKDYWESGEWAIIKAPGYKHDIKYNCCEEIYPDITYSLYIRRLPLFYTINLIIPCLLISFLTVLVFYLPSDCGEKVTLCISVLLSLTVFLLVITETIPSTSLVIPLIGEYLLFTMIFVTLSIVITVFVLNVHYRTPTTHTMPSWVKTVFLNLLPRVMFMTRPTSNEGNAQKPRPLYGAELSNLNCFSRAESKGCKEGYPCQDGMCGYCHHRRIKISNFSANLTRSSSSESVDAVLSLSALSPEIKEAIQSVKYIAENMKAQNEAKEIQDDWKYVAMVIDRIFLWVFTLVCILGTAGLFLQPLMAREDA

[10] = biological target: α3α6β2 nAChR (Homo sapiens, UniProt P17787+P32297+Q15825); assay type: cell-based; conditions: 30 µM
α3α6β2 nAChR, sequence (P32297 32-505 limits assumed): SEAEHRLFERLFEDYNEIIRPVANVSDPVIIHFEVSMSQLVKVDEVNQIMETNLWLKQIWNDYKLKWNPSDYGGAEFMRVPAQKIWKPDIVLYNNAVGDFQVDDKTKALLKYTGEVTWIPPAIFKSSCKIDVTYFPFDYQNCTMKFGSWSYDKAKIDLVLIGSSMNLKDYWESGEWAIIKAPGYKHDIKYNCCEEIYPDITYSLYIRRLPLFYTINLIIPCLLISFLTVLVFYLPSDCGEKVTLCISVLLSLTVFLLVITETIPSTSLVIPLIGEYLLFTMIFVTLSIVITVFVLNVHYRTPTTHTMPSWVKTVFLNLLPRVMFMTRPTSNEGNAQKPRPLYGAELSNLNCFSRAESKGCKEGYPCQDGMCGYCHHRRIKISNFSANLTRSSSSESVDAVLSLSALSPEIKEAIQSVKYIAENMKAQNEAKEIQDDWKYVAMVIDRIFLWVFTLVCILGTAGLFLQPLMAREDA
α3α6β2 nAChR, sequence (Q15825 26-494 limits assumed): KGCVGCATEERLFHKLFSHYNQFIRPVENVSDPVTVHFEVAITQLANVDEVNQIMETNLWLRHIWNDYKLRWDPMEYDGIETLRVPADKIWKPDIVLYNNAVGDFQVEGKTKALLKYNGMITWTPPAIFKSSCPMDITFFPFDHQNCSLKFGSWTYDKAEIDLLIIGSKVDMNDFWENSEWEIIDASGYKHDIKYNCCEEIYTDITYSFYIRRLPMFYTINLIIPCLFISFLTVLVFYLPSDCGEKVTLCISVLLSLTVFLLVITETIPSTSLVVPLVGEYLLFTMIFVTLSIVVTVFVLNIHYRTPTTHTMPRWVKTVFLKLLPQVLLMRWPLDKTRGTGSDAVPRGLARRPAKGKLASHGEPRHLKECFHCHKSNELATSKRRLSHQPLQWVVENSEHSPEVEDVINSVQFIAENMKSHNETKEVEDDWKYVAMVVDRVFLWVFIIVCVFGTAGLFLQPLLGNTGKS
α3α6β2 nAChR, sequence (P17787 26-502 limits assumed): as the sequence (P17787 26-502 limits assumed) above

[11] = system: α3-containing nAChRs; assay type: cell-based
[12] = biological target: α3, β4 subtype of the nAchR (Rattus norvegicus, UniProt P04757+P12392); conditions: cited from earlier work
[13] = system: α9, α10 nAchR; conditions: cited from earlier work
[14] = system: streptozotocin-induced diabetic rat; conditions: in vivo; cited from earlier work
[15] = system: rat models of human neuropathic pain; conditions: in vivo; cited from earlier work
[16] = system: unmyelinated C-fiber axons in isolated segments of peripheral human nerves; conditions: cited from earlier work
[17] = in vivo; cited from earlier work
[18] = system: animal model of inflammatory pain; conditions: in vivo; cited from earlier work

endoproteinase Glu-C (Endo Glu-C), sequence (P0C1U8 69-336 limits assumed): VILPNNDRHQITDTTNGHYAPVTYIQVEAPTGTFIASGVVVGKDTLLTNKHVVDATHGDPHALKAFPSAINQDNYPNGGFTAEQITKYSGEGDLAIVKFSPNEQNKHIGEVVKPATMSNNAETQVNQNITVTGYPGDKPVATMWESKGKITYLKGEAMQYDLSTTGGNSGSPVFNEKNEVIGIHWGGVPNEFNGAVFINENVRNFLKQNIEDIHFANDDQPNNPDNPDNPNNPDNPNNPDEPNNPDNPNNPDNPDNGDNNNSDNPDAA

CC[C@H](C)[C@@H]1NC(=O)[C@H](CCC(=O)O)NC(=O)[C@@H]2CCCN2C(=O)[C@H](Cc2c[nH]cn2)NC(=O)[C@H](CC(=O)O)NC(=O)[C@H](Cc2ccc(O)cc2)NC(=O)[C@H](CC(N)=O)NC(=O)[C@@H]2CSSC[C@@H]3NC(=O)CNC(=O)CNC(=O)CNC(=O)[C@H](C)NC(=O)[C@H](C)NC(=O)CNC(=O)CNC(=O)[C@H](CSSC[C@H](NC3=O)C(=O)N[C@@H](CO)C(=O)N[C@@H](CC(=O)O)C(=O)N3CCC[C@H]3C(=O)N[C@@H](CCCNC(=N)N)C(=O)N2)NC1=O [cVc1.1-6]
inhibition of catecholamine release, activity relative to linear Vc1.1 [1]: identical, within experimental error | ED50 [2]: ~1 mg/kg

CC(C)C[C@@H]1NC(=O)[C@H](CC(N)=O)NC(=O)[C@H](CO)NC(=O)[C@H](Cc2cnc[nH]2)NC(=O)[C@H](CCC(=O)O)NC(=O)[C@H](CC(C)C)NC(=O)[C@H](Cc2cnc[nH]2)NC(=O)[C@@H]2CSSC[C@H](NC(=O)CN)C(=O)N[C@@H](CSSC[C@@H](C(N)=O)NC1=O)C(=O)N[C@@H](CO)C(=O)N[C@@H](CC(N)=O)C(=O)N1CCC[C@H]1C(=O)N[C@@H](C(C)C)C(=O)N2 [MII]
half-life [3]: ~10 h | half-life [4]: ~16 h

α-conotoxin Vc1.1 (peptide)
potency to inhibit ACh-evoked current (fold lower potency) [5]: > 5

Vc1.1
inhibition of ACh-evoked currents [6]: failed to inhibit | inhibition of ACh-evoked currents [7]: failed to inhibit | inhibition of the ACh-evoked current [8]: 14±2% | lower potency to inhibit α3α5β4 [9]: > 5 fold | inhibition of ACh-induced current amplitude [10]: ~50% | antagonism of ACh-evoked currents [11]: did not antagonise ACh-evoked currents | detectable response alone (>50 nA) [11]: nor elicit a detectable response alone | IC50 [12]: 4200 nM | affinity for α9, α10 nAchR relative to α3, β4 nAchR [13]: one hundred fold higher | IC50 ([13]; read-out: affinity for the α9, α10 nAchR): 22.9 nM | time after dosing at which anti allodynic effect was observed [14]: ≤ 1 h | effect on neuropathic pain in three rat models [15]: alleviate neuropathic pain | functional recovery of injured neurons [15]: accelerate the functional recovery of injured neurons | effect on nicotine-induced increase in axonal excitability [16]: antagonize | analgesic activity relative to Ziconotide [17]: more active than Ziconotide | efficacy in an animal model of inflammatory pain [18]: effective
